{
  "source": "patent US12697367B2",
  "about": "“Medicament for improving or preventing symptoms relating to retina and/or light reception and method for screening for substance capable of improving or preventing symptoms relating to retina and/or light reception” (Osaka University, priority 2018, dated 2026)",
  "key": {"[1]": {"tested_on": "BALB/c mice with light-induced damage (blue LED light)", "test": "Light-induced damage experiment in mice: immunofluorescence staining of the photoreceptor layer of the retina", "type": "in vivo", "settings": "tacrolimus 10 mg/kg subcutaneously every day for 6 days", "experimental": "For dark adaptation, BALB/c mice aged 4 weeks (Japan SLC, Inc.) were housed in the dark for 12 hours. […] For control mice, DMSO was administered. Mydriatic eye drops, […] Pharmaceutical Co., Ltd.), were administered in the dark 30 minutes before completion of dark adaptation. The mice were placed in a box with four mirrored walls and a mirrored floor, and exposed to blue light from a blue LED light. The wavelength of the blue LED light was about 450 nm, and the light reaching the mice was about 7000 lx. After exposure to blue light for 3 hours, the mice were housed under normal light conditions (about 30 lx light from fluorescent lamps) for 9 hours. This dark/light cycle repeated as one cycle for 6 days. In other words, administration of the drug and exposure to blue light (3 hours) were performed every day for 6 days to induce light-induced damage. On the next day following the last exposure to blue light, the mice were euthanized and the eyes were harvested. The specimens were fixed in 4% paraformaldehyde/PBS (phosphate buffer saline) at room temperature for 5 minutes. The specimens were then washed with PBS, and embedded in O.C.T. compound (Sakura Finetek). Retinal cryosections of 20 μm thick were sliced with a cryostat, mounted on glass slides, and dried at room temperature. The sections were washed twice with PBS, and blocked with blocking buffer (5% normal donkey serum and 0.1% TritonX-100 in PBS) at room temperature for 1 hour. The sections were reacted with primary antibodies at 4° C. overnight. The sections were washed three times with PBS, and reacted with secondary antibodies at room temperature for 2 hours. The primary antibodies used in this study were anti-Rhodopsin antibody (rhodopsin, rabbit polyclonal, Santa Cruz, 1:500 dilution), anti-S-opsin antibody (S-opsin (blue cone opsin), goat polyclonal, Santa Cruz, 1:500 dilution), and anti-M-opsin antibody (M-opsin (green cone opsin), rabbit polyclonal, Millipore, 1:500 dilution). […] All the fluorescence images were acquired under a confocal laser scanning microscope (LSM 700, Carl Zeiss)."}, "[2]": {"tested_on": "BALB/c mice with light-induced damage (blue LED light)", "test": "Light-induced damage experiment in mice: measurement of thickness of photoreceptor layer", "type": "in vivo", "settings": "tacrolimus 10 mg/kg subcutaneously every day for 6 days; blue light about 450 nm, about 7000 lx, 3 hours daily; vs DMSO control; FIG. 3", "experimental": "For dark adaptation, BALB/c mice aged 4 weeks (Japan SLC, Inc.) were housed in the dark for 12 hours. […] For control mice, DMSO was administered. Mydriatic eye drops, Cyplegin (Santen Pharmaceutical Co., Ltd.), were administered in the dark 30 minutes before completion of dark adaptation. The mice were placed in a box with four mirrored walls and a mirrored floor, and exposed to blue light from a blue LED light. The wavelength of the blue LED light was about 450 nm, and the light reaching the mice was about 7000 lx. After exposure to blue light for 3 hours, the mice were housed under normal light conditions (about 30 lx light from fluorescent lamps) for 9 hours. This dark/light cycle repeated as one cycle for 6 days. In other words, administration of the drug and exposure to blue light (3 hours) were performed every day for 6 days to induce light-induced damage.\nMouse retinal sections prepared in the same manner as above were washed twice with PBS, and the nuclei were stained with DAPI. The thickness of the photoreceptor layer was measured as the distance from the optic nerve. Specifically, the images were acquired under a confocal laser scanning microscope (LSM 700, Carl Zeiss), and the thickness of the photoreceptor layer was measured using the image analysis software Metamorph (Molecular Devices)."}},
  "data": [
    {"smiles": "C=CC[C@@H]1/C=C(\\C)C[C@H](C)C[C@H](OC)[C@H]2O[C@@](O)(C(=O)C(=O)N3CCCC[C@H]3C(=O)O[C@H](/C(C)=C/[C@@H]3CC[C@@H](O)[C@H](OC)C3)[C@H](C)[C@@H](O)CC1=O)[C@H](C)C[C@@H]2OC", "note": "[tacrolimus, (3S,4R,5S,8R,9E,12S,14S,15R,16S,18R,19R,26aS)-5,19-Dihydroxy-3-{(1E)-2-[(1R,3R,4R)-4-hydroxy-3-methoxycyclohexyl]-1-methylethenyl}-14,16-dimethoxy-4,10,12,18-tetramethyl-8-(prop-2-en-1-yl)-15,19-epoxy-5,6,8,11,12,13,14,15,16,17,18,19,24,25,26,26a-hexadecahydro-3H-pyrido[2,1-c][1,4]oxaazacyclotricosine-1,7,20,21(4H,23H)-tetrone monohydrate]", "values": [
      {"measurement": "structure of the outer segment of the rod photoreceptor cells (anti-Rhodopsin antibody staining)", "setting": "[1]; blue light about 450 nm, about 7000 lx, 3 hours daily, vs DMSO control, FIG. 1", "result": "maintained and comparable to that of control mice without light-induced damage"},
      {"measurement": "structure of the cone photoreceptor cells (anti-S-opsin and anti-M-opsin antibody staining)", "setting": "[1]; blue light about 450 nm, about 7000 lx, 3 hours daily, vs DMSO control, FIG. 2", "result": "maintained and comparable to that of control mice without light-induced damage"},
      {"measurement": "degeneration of photoreceptor cells due to light exposure (overall conclusion)", "setting": "[1]; mice with light-induced damage", "result": "inhibits the degeneration of photoreceptor cells due to light exposure"},
      {"measurement": "thickness of the photoreceptor layer", "setting": "[2]", "result": "maintained and comparable to that of control mice without light-induced damage"}
    ]}
  ]
}
